In PMC6205551, “Molecular analysis of the dual targeting of the epidermal growth factor receptor and the O^6-methylguanine-DNA methyltransferase with a double arm hybrid molecule” (Oncotarget, 2018):

Legend:
[1] = molecular target: T1, O^6-methylguanine-DNA methyltransferase (MGMT) (Homo sapiens, UniProt P16455); test: MALDI-TOF MS of tryptic peptides of isolated MGMT incubated with […] compound (S-benzylation); format: binding
T1 sequence (P16455 1-207): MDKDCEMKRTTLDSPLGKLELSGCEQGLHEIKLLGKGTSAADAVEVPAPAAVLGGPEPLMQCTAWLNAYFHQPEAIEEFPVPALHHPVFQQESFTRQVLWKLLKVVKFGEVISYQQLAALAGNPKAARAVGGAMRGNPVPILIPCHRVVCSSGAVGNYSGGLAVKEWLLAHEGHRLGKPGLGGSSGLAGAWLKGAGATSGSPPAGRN

HER4 = molecular target: T2, HER4 (Homo sapiens, UniProt Q15303); test: isolated kinase profiling (Carna), single dose […], ATP at Km; format: biochemical
T2 construct: gene ERBB4
T2 sequence (Q15303 26-1308): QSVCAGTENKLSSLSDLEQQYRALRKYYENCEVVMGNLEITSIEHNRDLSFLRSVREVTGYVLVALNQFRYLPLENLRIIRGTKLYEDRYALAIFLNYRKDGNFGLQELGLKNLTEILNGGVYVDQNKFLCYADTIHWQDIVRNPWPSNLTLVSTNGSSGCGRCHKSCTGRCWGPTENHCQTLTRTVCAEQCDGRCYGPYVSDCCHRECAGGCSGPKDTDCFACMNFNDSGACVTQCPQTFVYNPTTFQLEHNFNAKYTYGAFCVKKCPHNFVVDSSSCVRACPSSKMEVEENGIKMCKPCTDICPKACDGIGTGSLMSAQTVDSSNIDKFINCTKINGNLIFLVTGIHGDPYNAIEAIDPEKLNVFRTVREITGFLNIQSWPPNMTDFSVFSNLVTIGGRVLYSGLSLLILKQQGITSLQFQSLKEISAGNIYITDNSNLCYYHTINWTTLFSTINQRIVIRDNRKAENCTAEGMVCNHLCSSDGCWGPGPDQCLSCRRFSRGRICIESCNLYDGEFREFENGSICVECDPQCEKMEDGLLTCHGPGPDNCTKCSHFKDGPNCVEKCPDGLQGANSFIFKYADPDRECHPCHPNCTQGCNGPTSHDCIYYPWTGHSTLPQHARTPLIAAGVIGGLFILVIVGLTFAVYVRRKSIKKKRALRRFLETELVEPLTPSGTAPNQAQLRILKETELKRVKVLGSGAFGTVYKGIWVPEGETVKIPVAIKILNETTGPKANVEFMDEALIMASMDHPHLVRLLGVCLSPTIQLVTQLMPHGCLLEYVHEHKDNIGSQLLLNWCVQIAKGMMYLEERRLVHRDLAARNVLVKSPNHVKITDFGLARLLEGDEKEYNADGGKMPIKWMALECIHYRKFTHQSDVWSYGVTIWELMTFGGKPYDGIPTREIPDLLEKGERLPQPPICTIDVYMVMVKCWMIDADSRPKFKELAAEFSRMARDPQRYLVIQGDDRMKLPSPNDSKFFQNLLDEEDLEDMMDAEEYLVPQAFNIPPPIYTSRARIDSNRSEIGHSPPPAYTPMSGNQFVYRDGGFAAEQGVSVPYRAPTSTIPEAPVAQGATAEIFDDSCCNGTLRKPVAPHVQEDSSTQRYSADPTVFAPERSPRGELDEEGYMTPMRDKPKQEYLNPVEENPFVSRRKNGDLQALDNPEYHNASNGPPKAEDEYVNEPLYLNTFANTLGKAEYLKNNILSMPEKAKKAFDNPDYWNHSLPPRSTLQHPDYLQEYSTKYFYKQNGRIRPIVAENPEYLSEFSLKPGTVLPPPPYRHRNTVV

EGFR (L858R) = EGFR (L858R) (Homo sapiens, UniProt P00533, L858R); test: as above; format: biochemical
[2] = molecular target: epidermal growth factor receptor (EGFR) (Homo sapiens, UniProt P00533); test: in vitro EGFR kinase assay (PGT substrate, […] ATP, ELISA); format: biochemical
HER2 = molecular target: T3, HER2 (Homo sapiens, UniProt P04626); test: isolated kinase profiling (Carna), single dose […], ATP at Km; format: biochemical
T3 construct: gene ERBB2
T3 sequence (P04626 23-1255): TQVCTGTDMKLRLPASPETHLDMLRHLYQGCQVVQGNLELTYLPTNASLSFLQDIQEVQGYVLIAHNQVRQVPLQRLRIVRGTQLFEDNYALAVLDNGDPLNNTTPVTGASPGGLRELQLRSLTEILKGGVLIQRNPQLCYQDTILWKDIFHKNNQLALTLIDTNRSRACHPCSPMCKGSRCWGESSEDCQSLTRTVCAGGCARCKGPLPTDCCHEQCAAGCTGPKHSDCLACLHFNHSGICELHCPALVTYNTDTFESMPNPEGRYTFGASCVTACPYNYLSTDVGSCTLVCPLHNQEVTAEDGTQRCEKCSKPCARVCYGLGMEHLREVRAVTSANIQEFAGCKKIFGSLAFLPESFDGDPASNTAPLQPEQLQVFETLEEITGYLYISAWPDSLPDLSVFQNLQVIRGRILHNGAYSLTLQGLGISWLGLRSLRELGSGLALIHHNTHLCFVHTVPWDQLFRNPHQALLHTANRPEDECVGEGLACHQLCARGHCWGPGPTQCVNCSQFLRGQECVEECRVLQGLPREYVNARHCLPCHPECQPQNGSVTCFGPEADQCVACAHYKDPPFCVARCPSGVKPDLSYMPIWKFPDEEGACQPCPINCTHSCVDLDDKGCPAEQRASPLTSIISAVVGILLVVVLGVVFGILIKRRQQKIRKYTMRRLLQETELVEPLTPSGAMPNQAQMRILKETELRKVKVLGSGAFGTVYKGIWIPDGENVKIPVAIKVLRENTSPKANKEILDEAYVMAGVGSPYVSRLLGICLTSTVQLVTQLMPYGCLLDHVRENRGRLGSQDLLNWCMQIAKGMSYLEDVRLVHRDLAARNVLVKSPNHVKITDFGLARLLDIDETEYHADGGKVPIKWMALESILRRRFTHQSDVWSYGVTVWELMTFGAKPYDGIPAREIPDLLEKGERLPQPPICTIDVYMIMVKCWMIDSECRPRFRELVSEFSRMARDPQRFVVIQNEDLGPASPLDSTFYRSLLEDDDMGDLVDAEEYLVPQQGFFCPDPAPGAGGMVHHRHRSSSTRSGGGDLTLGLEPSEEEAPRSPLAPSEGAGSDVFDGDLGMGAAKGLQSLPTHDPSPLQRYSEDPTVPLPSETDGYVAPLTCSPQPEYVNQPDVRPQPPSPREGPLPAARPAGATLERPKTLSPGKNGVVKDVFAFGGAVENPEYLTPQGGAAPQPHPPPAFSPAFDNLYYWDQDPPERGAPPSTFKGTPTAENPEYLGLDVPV

| SMILES | MALDI-TOF MS of tryptic peptides of isolated MGMT incubated with 10 μM compound [1] | isolated kinase profiling (Carna), single dose 500 nM, ATP at Km (HER4) | isolated kinase profiling (Carna), single dose 500 nM, ATP at Km (EGFR (L858R)) | IC50 [2] | isolated kinase profiling (Carna), single dose 500 nM, ATP at Km (HER2) |
| --- | --- | --- | --- | --- | --- |
| Nc1nc(OCc2ccccc2)c2nc[nH]c2n1 [O^6-BG] | when we treated MGMT with MR30 or O^6-BG, we observed a mass shift |  |  |  |  |
| Nc1nc(OCc2ccccc2)c2ncn(C(=O)N3CCN(CCNc4ccc5ncnc(Nc6cccc(Br)c6)c5c4)CC3)c2n1 [compound 5, (2-amino-6-(benzyloxy)-9H-purin-9-yl)(4-(2-((4-((3-bromophenyl)amino)quinazolin-6-yl)amino)ethyl)piperazin-1-yl)methanone] | like O^6-BG, MR30 is capable of binding to MGMT and alkylate its Cys145 | MR30 selectively inhibited kinases from HER family of proteins, including EGFR, EGFR (L858R, d746-750), HER2 and HER4 | MR30, selectively inhibited kinases from the HER family of proteins [e.g. EGFR wild-type, EGFR (L858R) | 300 ± 170 nM | MR30 selectively inhibited kinases from HER family of proteins, including EGFR, EGFR (L858R, d746-750), HER2 and HER4 |
